Measured values reported in patent US10189794B2, “Heteroaryl compounds and uses thereof” (Celgene CAR LLC, priority 2013, dated 2019).
Entries after “also recorded” stand apart in the source; their conditions may differ. Read-outs that look alike come from different tables or passages of the source.

Legend:
[1] = molecular target: FGFR4-WT (Homo sapiens (Human), UniProt P22455); assay: Omnia assay for potency assessment against FGFR4 enzyme; assay type: biochemical; settings: Y10-Sox 10 uM, read-out: FGFR4 IC50
Description: A 10× stock solution of FGFR4-WT (PR4380C), (from Invitrogen, Carlsbad, Calif.) corresponding to method a in Table 7, was prepared as described below. Alternatively, a 10× stock solution of FGFR4-WT (F01-11G), (SignalChem, Richmond, BC) corresponding to method b in Table 7, was prepared as described below. A solution of 1.4×ATP (AS001A) and 5×Tyr-Sox conjugated peptide substrate (KNZ3101) were prepared in IX kinase reaction buffer consisting of 20 mM Tris, pH 7.5, 5 mM MgCl2, 1 mM EGTA, 5 mM β-glycerophosphate, 5% glycerol (10× stock, KB002A) and 0.2 mM DTT (DS001A). […] The serially diluted compounds were prepared on a Tecan EVO100. A second addition of 10 μl of Tyr-Sox FGFR4 substrate was added to each well and the kinase reactions were started with the addition of 35 μL of 1.4×ATP. The reactions were monitored every 71 seconds for 240 minutes at λex360/λem485 in a Synergy plate reader from BioTek (Winooski, Vt.).

[2] = system: MDA-MB-453 cells; assay: Cell proliferation, MDA-MB-453 (CellTiter Glo); assay type: cell-based; settings: Homo sapiens; MDA-MB-453; 96 hr; read-out: Cell Proliferation GI50 (nM) MDA
[3] = system: Huh7 cells; assay: Cell proliferation, Huh7 (CellTiter Glo); assay type: cell-based; settings: Homo sapiens, Huh-7; Huh7; 120 hr; read-out: Cell Proliferation GI50 (nM) HUH
Description: The growth inhibition (GI50) values were determined by Graph Pad Prism.

[4] = molecular target: T1, pFGFR4 in MDA-MB-453 cells (Homo sapiens (Human), UniProt P22455, Y367C); assay: Washout experiment (duration of pFGFR4 inhibition); assay type: cell-based; settings: 1000-2000 nM for 1 hr, washed, up to 24 hr
Description: The cells were allowed to settle down for 4 hrs and were then maintained in low-serum (0.1% FBS) media overnight.
The following morning, the media was removed and the cells were treated with 1000-2000 nM of test compound in low-serum media for 1 hr. The cells were washed free of test compound (3×) with PBS (Invitrogen). One set of cells was immediately lysed as indicated above as the 0 hr time point. The remaining cells were incubated with the appropriate complete growth media (10-20% FBS) for 1, 2, 4, 8, 16 (in certain circumstances) and 24 hr. DMSO (0.5%) controls were collected at all time points.

[5] = molecular target: pFGFR4 in Huh7 cells (Homo sapiens (Human), UniProt P22455); assay: FGFR4 signaling (phospho-FGFR4) in Huh7 cells, MSD; assay type: cell-based; settings: Meso Scale assay (MSD), 1 hr treatment, read-out: Signaling EC50 (nM) pFGFR4 (Huh)
[6] = molecular target: FGFR4 in MDA-MB-453 cells (Homo sapiens (Human), UniProt P22455, Y367C); assay: Target occupancy assay with biotinylated covalent probe I-127; assay type: cell-based; settings: MDA-MB-453 lysate; 2 μM biotinylated probe I-127
Description: In order to assess free FGFR4 protein a biotinylated covalent probe was utilized. […] The reaction was incubated for 2 hr at room temperature. The samples and probe mixture were transferred to a FGFR4-coated MSD plate for 2 hr at room temperature. MSD signals were obtained with an anti-streptavidin Sulfo-tag (Meso Scale) antibody for 1 hr at room temperature.
If a compound completely (100%) covalently modies FGFR4 no free FGFR4 should be available for covalent modification by the biotinylated probe and subsequent binding to streptavidin and detection.

[7] = molecular target: T1, pFGFR4 in MDA-MB-453 cells; assay: FGFR4 signaling (phospho-FGFR4) in MDA-MB-453 cells; assay type: cell-based; settings: 1 hr treatment
[8] = method a: Invitrogen FGFR4-WT 10 nM, ATP 300 uM
[9] = Method A immunoblotting (Western blotting)

Sequence of FGFR4-WT (P22455 22-802): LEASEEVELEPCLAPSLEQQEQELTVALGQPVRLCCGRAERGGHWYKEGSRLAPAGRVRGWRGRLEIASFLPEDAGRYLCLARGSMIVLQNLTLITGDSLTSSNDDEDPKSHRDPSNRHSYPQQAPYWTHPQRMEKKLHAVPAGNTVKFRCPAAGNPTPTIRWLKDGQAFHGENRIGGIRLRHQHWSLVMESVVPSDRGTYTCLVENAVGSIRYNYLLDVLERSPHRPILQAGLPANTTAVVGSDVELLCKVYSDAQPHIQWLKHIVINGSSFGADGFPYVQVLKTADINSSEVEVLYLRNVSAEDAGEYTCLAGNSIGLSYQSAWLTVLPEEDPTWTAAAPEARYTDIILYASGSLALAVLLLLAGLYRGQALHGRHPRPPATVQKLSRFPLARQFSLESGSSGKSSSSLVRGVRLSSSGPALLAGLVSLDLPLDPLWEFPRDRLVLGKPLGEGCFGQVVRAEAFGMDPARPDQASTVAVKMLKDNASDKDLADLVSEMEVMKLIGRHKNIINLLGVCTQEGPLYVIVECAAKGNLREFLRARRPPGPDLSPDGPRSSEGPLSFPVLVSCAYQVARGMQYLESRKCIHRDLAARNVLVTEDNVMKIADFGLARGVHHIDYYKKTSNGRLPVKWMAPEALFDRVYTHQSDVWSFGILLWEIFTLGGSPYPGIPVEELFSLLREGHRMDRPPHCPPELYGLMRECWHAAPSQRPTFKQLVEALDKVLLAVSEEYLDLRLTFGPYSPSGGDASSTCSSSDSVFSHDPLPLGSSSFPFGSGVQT
T1 sequence (P22455 22-802 Y367C): as the sequence (P22455 22-802) above, with Y346C counted along it
Sequence of FGFR4 in MDA-MB-453 cells (P22455 22-802 Y367C): as the sequence (P22455 22-802) above, with Y346C counted along it
Sequence of pFGFR4 in Huh7 cells (P22455 22-802): as the sequence (P22455 22-802) above

| EC50 [6] | EC50 ([7]; Method C ELISA) | SMILES | IC50 [1, 8] | GI50 [2] | GI50 [3] | duration of action against pFGFR4 signalling after washout [4] | EC50 [5] | IC50 ([1]; method b: SignalChem FGFR4-WT 2.5 nM, ATP 250 uM) | EC50 [7, 9] |
| --- | --- | --- | --- | --- | --- | --- | --- | --- | --- |
|  |  | C=CC(=O)NC1CCCCC1Nc1ncc2c(n1)N(Cc1cscn1)C(=O)N(c1c(Cl)c(OC)cc(OC)c1Cl)C2 (racemic) [I-69] | < 100 nM | 101 to 500 nM | 501 to 999 nM | prolonged inhibition of autophosphorylation of FGFR4; also recorded: prolonged duration of action |  |  |  |
| < 100 nM | < 100 nM | C=CC(=O)Nc1ccccc1Nc1ncc2c(n1)N(Cc1ccccc1)C(=O)N(c1c(Cl)c(OC)cc(OC)c1Cl)C2 [I-3] |  | < 100 nM | < 100 nM |  |  |  |  |
|  |  | C=CC(=O)Nc1ccc(Nc2ncc3c(n2)N(Cc2cccc(NC(=O)CC)c2)C(=O)N(c2c(Cl)c(OC)cc(OC)c2Cl)C3)cc1 [I-233] |  |  |  |  |  | < 100 nM | < 100 nM |
| > 1000 nM |  | CCC(=O)Nc1cccc(CN2C(=O)N(c3c(Cl)c(OC)cc(OC)c3Cl)Cc3cnc(Nc4ccccc4NC(=O)CC)nc32)c1 [I-234] |  | > 1000 nM |  | does not show prolonged duration of action; also recorded: does not have PDA |  |  | 101 to 500 nM |

| SMILES | EC50 [6] | EC50 ([7]; Method C ELISA) | IC50 [1, 8] | GI50 [2] | GI50 [3] | duration of action against pFGFR4 signalling after washout [4] | EC50 [5] | IC50 ([1]; method b: SignalChem FGFR4-WT 2.5 nM, ATP 250 uM) | EC50 [7, 9] |
| --- | --- | --- | --- | --- | --- | --- | --- | --- | --- |
| C=CC(=O)Nc1ccccc1Nc1ncc2c(n1)N(Cc1cccc(NC(=O)CC)c1)C(=O)N(c1c(Cl)c(OC)cc(OC)c1Cl)C2 [I-1] | < 100 nM |  | < 100 nM | < 100 nM | 101 to 500 nM | prolonged duration of action; also recorded: has PDA | < 100 nM |  |  |
